Assay results: patent publication US20160024083A1, “COMPOUNDS AND METHODS FOR TREATING CANCERS” (HEALTH RESEARCH, INC., priority 2013, published 2016)
Like-named read-outs stand apart in the source and are kept apart here.

Key:
Format in all cases: cell-based
PC3 = test: Inhibition of growth / toxicity in non-target PC3 cells; details: Homo sapiens, PC-3
Protocol: (§1) This example provides a table (below) of the compounds of the present disclosure and their activity towards four different cell lines (i.e., CWR22R, HeLa, PC3, and MDA-MB-231). The IC50 for inhibition of growth is divided into 4 categories: A<1 μM, B 1-5 μM, C 5-20 μM, D>20 μM.
(§2) All compounds were tested for toxicity using 4 cells lines, target cells—CWR22R and non-target cells, Hela, PC3 and MDA-MB-231 (FIGS. 1A-F).

CWR22R = test: cells
Protocol: FIG. 21. Toxicity of PLA1055 to CWR22R cells in vitro depending on time of incubation. PLA1055 was added to CWR22R in full range of concentrations for the periods of time shown on the right. After that drug containing media were changed for drug free and survival of cells was detected at 72 hours after start of treatment using Alamar Blue assay (Promega).
as §1, §2
LC50 data of in vitro 72 hours cytotoxicity assay are included in this table for comparison.
An in vitro experiment was run to detect the concentration of PLA1055 needed to kill all tumor cells in vitro (LC90) during different periods of time (30 minutes-72 hours, FIG. 21)).

MDA-MB-231 = test: Inhibition of growth / toxicity in non-target MDA-MB-231 cells
Protocol: as §1, §2

Hela = test: Inhibition of growth / toxicity in non-target Hela cells
Protocol: as §1, §2

[1] = Homo sapiens, 22Rv1, CWR22R, read-out: IC50 for inhibition of growth
[2] = CWR22R, read-out: IC50 for inhibition of growth

SMILES	IC50 (PC3)	IC50 (CWR22R; [1])	IC50 (MDA-MB-231; Homo sapiens)	IC50 (Hela; Homo sapiens, HeLa)	IC50 (CWR22R; Homo sapiens, 22Rv1, read-out: IC50 for inhibition of growth, CWR22R)	IC50 (CWR22R; [2])	IC50 (MDA-MB-231)	IC50 (Hela; Hela)
FCCCn1c2ccccc2c2cc(-c3cnco3)ccc21 [Compound 11-1, 9-(3-Fluoropropyl)-3-oxazol-5-yl-9H-carbazole]	> 20 µM	< 1 µM	> 20 µM	> 20 µM	–	–	–	–
NC(=O)c1cnc2c(c1)c1ccccc1n2CCCF [Compound 7-1, 9-(3-Fluoropropyl)-9H-pyrido[2,3-b]indole-3-carboxamide]	> 20 µM	1 to 5 µM	> 20 µM	> 20 µM	–	–	–	–
CCCn1c2ccc(C(C)=O)cc2c2c(C#N)cccc21 [Compound 25-1, 6-Acetyl-9-propyl-9H-carbazole-4-carbonitrile]	> 20 µM	1 to 5 µM	> 20 µM	> 20 µM	–	–	–	–
N#Cc1ccc2c(c1)c1ccccc1n2CCCF [Compound 26-1, 9-(3-Fluoropropyl)-9H-carbazole-3-carbonitrile]	> 20 µM	< 1 µM	> 20 µM	> 20 µM	–	–	–	–
CCCn1c2ccccc2c2cc(C#N)ccc21 [Compound 22-2]	> 20 µM	< 1 µM	> 20 µM	> 20 µM	–	–	–	–
CC(=O)c1cc2c3ccccc3n(CCCF)c2cn1 [Compound 17-1, 1-[9-(3-Fluoropropyl)-9H-beta-carbolin-3-yl]-ethanone]	> 20 µM	< 1 µM	> 20 µM	> 20 µM	–	–	–	–
CCCn1c2ccccc2c2cc(-c3cnco3)ccc21 [Compound 11-2]	> 20 µM	< 1 µM	> 20 µM	> 20 µM	–	–	–	–
CCn1c2ccccc2c2cc(-c3ccccn3)ccc21 [Compound 4-4]	> 20 µM	5 to 20 µM	> 20 µM	> 20 µM	–	–	–	–
CCn1c2ccccc2c2cc(-c3cccs3)ccc21 [Compound 2-6]	–	1 to 5 µM	> 20 µM	> 20 µM	–	–	–	–
CNC(=O)c1cccc2c1c1cc(C(C)=O)ccc1n2CCCF [Compound 6-4]	> 20 µM	5 to 20 µM	> 20 µM	> 20 µM	–	–	–	–
CC(=O)c1ccc2c(c1)c1c(C(N)=O)cccc1n2CCCF [Compound 5-8]	> 20 µM	< 1 µM	> 20 µM	> 20 µM	–	–	–	–
CCCn1c2ccc(C(C)=O)cc2c2cc(C(N)=O)ccc21 [Compound 23-1, 6-Acetyl-9-propyl-9H-carbazole-3-carboxylic acid amide]	> 20 µM	5 to 20 µM	5 to 20 µM	> 20 µM	–	–	–	–
CCCn1c2ccccc2c2cc(C3=NCCO3)ccc21 [Compound 15-2]	> 20 µM	> 20 µM	> 20 µM	> 20 µM	–	–	–	–
CCCn1c2ccccc2c2cc(-c3ncco3)ccc21 [Compound 4-1, 3-Oxazol-2-yl-9-propyl-9H-carbazole]	> 20 µM	1 to 5 µM	> 20 µM	> 20 µM	–	–	–	–
CCCn1c2ccccc2c2cc(-c3cccs3)ccc21 [Compound 2-1, 9-Propyl-3-thiophen-2-yl-9H-carbazole]	> 20 µM	< 1 µM	> 20 µM	> 20 µM	–	–	–	–
CC(=O)c1ccc2c(c1)c1ccccc1n2CCC(F)F [Compound 18-2, 1-[9-(3,3-Difluoropropyl)-9H-carbazol-3-yl]-ethanone]	> 20 µM	< 1 µM	> 20 µM	> 20 µM	–	–	–	–
FCCCn1c2ccccc2c2cc(-c3ccno3)ccc21 [Compound 13-2]	> 20 µM	< 1 µM	> 20 µM	> 20 µM	–	–	–	–
FCCCn1c2ccccc2c2cc(-c3nnco3)ccc21 [Compound 9-1, 9-(3-Fluoropropyl)-3-[1,3,4]oxadiazol-2-yl-carbazole]	> 20 µM	< 1 µM	> 20 µM	> 20 µM	–	–	–	–
CCCn1c2ccc(C(C)=O)cc2c2ccc(F)cc21 [Compound 5-2]	> 20 µM	5 to 20 µM	> 20 µM	> 20 µM	–	–	–	–
CCCn1c2ccc(Br)cc2c2cc(C(C)=O)ccc21 [Compound 20-1, 1-(6-Bromo-9-propyl-9H-carbazol-3-yl)-ethanone]	> 20 µM	5 to 20 µM	> 20 µM	> 20 µM	–	–	–	–
CCCn1c2ccccc2c2cc(-c3ccno3)ccc21 [Compound 13-1, 3-Isoxazol-5-yl-9-propyl-9H-carbazole]	> 20 µM	1 to 5 µM	> 20 µM	> 20 µM	–	–	–	–
CCCn1c2ccccc2c2cc(C(C)=O)cnc21 [Compound 5-10]	> 20 µM	< 1 µM	> 20 µM	> 20 µM	–	–	–	–

SMILES	IC50 (PC3)	IC50 (CWR22R; [1])	IC50 (MDA-MB-231; Homo sapiens)	IC50 (Hela; Homo sapiens, HeLa)	IC50 (CWR22R; Homo sapiens, 22Rv1, read-out: IC50 for inhibition of growth, CWR22R)	IC50 (CWR22R; [2])	IC50 (MDA-MB-231)	IC50 (Hela; Hela)
CCCn1c2ccc(C(C)=O)cc2c2c(OC)cccc21 [Compound 6-1, 1-(5-Methoxy-9-propyl-9H-carbazol-3-yl)-ethanone]	> 20 µM	< 1 µM	> 20 µM	> 20 µM	–	–	–	–
CCCn1c2ccc(C(C)=O)cc2c2ncccc21 [Compound 5-13]	> 20 µM	1 to 5 µM	> 20 µM	> 20 µM	–	–	–	–
CCCn1c2ccccc2c2cc(Br)ccc21 [Compound 1-1, 3-Bromo-9-propyl-9H-carbazole]	> 20 µM	–	> 20 µM	> 20 µM	1 to 5 µM	–	–	–
CCCn1c2ccccc2c2cc(-c3cnoc3)ccc21 [Compound 2-5]	> 20 µM	< 1 µM	> 20 µM	> 20 µM	–	–	–	–
CCCn1c2ccccc2c2cc(-c3nnco3)ccc21 [Compound 8-1, 3-[1,3,4]Oxadiazol-2-yl-9-propyl-9H-carbazole]	> 20 µM	< 1 µM	> 20 µM	> 20 µM	–	–	–	–
CCCn1c2ccc(Cl)cc2c2cc(C(C)=O)ccc21 [Compound 20-2]	> 20 µM	> 20 µM	> 20 µM	> 20 µM	–	–	–	–
CCCn1c2ccccc2c2cc(-c3ccccn3)ccc21 [Compound 4-5]	> 20 µM	1 to 5 µM	> 20 µM	> 20 µM	–	–	–	–
CC(=O)c1ccc2c(c1)c1ccccc1n2CCCF [Compound 1-2]	> 20 µM	< 1 µM	> 20 µM	> 20 µM	–	–	–	–
N#Cc1cnc2c(c1)c1ccccc1n2CCCF [Compound 25-3]	> 20 µM	1 to 5 µM	> 20 µM	> 20 µM	–	–	–	–
CCCn1c2ccccc2c2cc(-c3ccc(C)s3)ccc21 [Compound 2-2]	> 20 µM	> 20 µM	> 20 µM	> 20 µM	–	–	–	–
CCCn1c2ccc(C(C)=O)cc2c2c(O)cccc21 [Compound 27-1, 1-(5-Hydroxy-9-propyl-9H-carbazol-3-yl)-ethanone]	> 20 µM	> 20 µM	> 20 µM	> 20 µM	–	–	–	–
FCCCn1c2ccccc2c2cc(-c3nnco3)cnc21 [Compound 8-4]	> 20 µM	< 1 µM	> 20 µM	> 20 µM	–	–	–	–
FCCCn1c2ccc(-c3nnco3)cc2c2ncccc21 [Compound 10-2]	–	–	–	–	–	5 to 20 µM	> 20 µM	> 20 µM
N#Cc1ccc2c(c1)c1c(C(N)=O)cccc1n2CCCF [Compound 19-2]	> 20 µM	< 1 µM	> 20 µM	> 20 µM	–	–	–	–
FCCCn1c2ccccc2c2cc(-n3cncn3)ccc21 [Compound 14-1, 9-(3-Fluoropropyl)-3-[1,2,4]triazol-1-yl-9H-carbazole]	> 20 µM	< 1 µM	> 20 µM	> 20 µM	–	–	–	–
CCCn1c2ccc(OC)cc2c2cc(C(C)=O)ccc21 [Compound 21-1, 1-(6-Methoxy-9-propyl-9H-carbazol-3-yl)-ethanone]	> 20 µM	5 to 20 µM	> 20 µM	> 20 µM	–	–	–	–
CCCn1c2ccc(C(C)=O)cc2c2c(C(N)=O)cccc21 [Compound 19-1, 6-Acetyl-9-propyl-9H-carbazole-4-carboxamide]	> 20 µM	1 to 5 µM	> 20 µM	> 20 µM	–	–	–	–
FCCCn1c2ccc(-c3nnco3)cc2c2ncccc21 [Compound 10-1, 5-(3-Fluoropropyl)-8-[1,3,4]oxadiazol-2-yl-5H-pyrido[3,2-b]indole]	–	–	> 20 µM	> 20 µM	–	> 20 µM	–	–
CCCn1c2ccccc2c2cc(-c3cocn3)ccc21 [Compound 12-1, 3-Oxazol-4-yl-9-propyl-9H-carbazole]	> 20 µM	> 20 µM	> 20 µM	> 20 µM	–	–	–	–
CCCn1c2ccc(C(C)=O)cc2c2c(F)cccc21 [Compound 5-1, 1-(5-Fluoro-9-propyl-9H-carbazol-3-yl)-ethanone]	> 20 µM	< 1 µM	> 20 µM	> 20 µM	–	–	–	–
CCOC(=O)c1cnc2c(c1)c1ccccc1n2CCCF [Compound 5-11, 9-(3-fluoropropyl)-9H-pyrido[2,3-b]indole-3-carboxylic acid ethyl ester]	> 20 µM	1 to 5 µM	> 20 µM	> 20 µM	–	–	–	–
CCCn1c2ccccc2c2cc(-c3nccs3)ccc21 [Compound 4-2]	> 20 µM	> 20 µM	> 20 µM	> 20 µM	–	–	–	–
